From patent US6544727B1, “Methods and devices for the removal of psoralens from blood products” (Cerus Corporation, priority 1995, dated 2003)

Legend:
[1] = test system: Salmonella tester strain TA102; experiment: Ames test, strain TA102
Protocol: In this example the compounds of the present invention are tested for their dark mutagenicity using an Ames assay. The procedures used for the Salmonella mutagenicity test as described in detail by Maron and Ames were followed exactly. Maron, D. M. and B. N. Ames, Mutation Research 113: 173 ( 1983). A brief description for each procedure is given here. The tester strains TA97a, TA98, TA100, TA102, TA1537 and TA1538 were obtained from Dr. Ames. TA97a, TA98, TA1537 and TA1538 are frameshift tester strains. TA100 and TA102 are base-substitution tester strains. Upon receipt each strain was cultured under a variety of conditions to confirm the genotypes specific to the strains.
The first tests done with the strains were to determine the range of spontaneous reversion for each of the strains. With each mutagenicity experiment the spontaneous reversion of the tester strains to histidine independence was measured and expressed as the number of spontaneous revertants per plate. This served as the background controls.
For all experiments, the pre-incubation procedure was used. In this procedure one vial of each tester strain was thawed and 20 μL of this culture was added to 6 mL of Oxoid Nutrient Broth #2. This solution was allowed to shake for 10 hours at 37° C. In the pre-incubation procedure, 0.1 mL of this overnight culture was added to each of the required number of sterile test tubes. To half of the tubes 0.5 mL of a 10% S-9 solution containing Aroclor 1254 induced rat liver extract (Molecular Toxicology Inc., Annapolis, Md.), and MgCl2, KCl, glucose-6-phosphate, NADP, and sodium phosphate buffer (Sigma, St. Louis, Mo.) were added. To the other half of the tubes 0.5 mL of 0.2M sodium phospate buffer, pH 7.4, was used in place of the S-9 mixture (the—S9samples). Finally 0.1 mL of the test solution containing either 0, 0.1, 0.5, 1, 5, 10, 50, 100, 250, or 500 μg/mL of the test compound was added. The 0.7 mL mixture was vortexed and then pre-incubated while shaking for 20 minutes at 37° C. After shaking, 2 mL of molten top agar supplemented with histidine and biotin were added to the 0.7 mL mixture and immediately poured onto a minimal glucose agar plate (volume of base agar was 20 mL). The top agar was allowed 30 minutes to solidify and then the plates were inverted and incubated for 44 hours at 37° C. After incubation the number of revertant colonies on each plate were counted. […] (“n” represents the number of replicates performed for each data point.)

[2] = HPLC of residual S-59 and photoproducts after RD containing Dowex XUS-43493 (Table N); format: physicochemical
Protocol: […] The unbound photoproducts can be monitored and quantified using a standard HPLC assay.
Samples were prepared for HPLC analysis according to the general procedure described in Example 39, infra. Briefly, the assay involved an initial sample preparation which lyses the platelets and solubilizes the S-59 and photoproducts. The supernatant from the sample preparation was then analyzed on a C-18 reverse phase column with a gradient of increasing methanol in KH2PO4 buffer. The major peaks were detected by optical absorbance.
Following illumination with 3.0 J/cm^2 UVA of a PC to which 15.2 mg S-59 had been added, the treated PC was incubated with the RD (contained within a PL 2410 Plastic container, Baxter) for 8 hours. Samples of the treated PC were then taken and subjected to HPLC for detection of residual S-59 and S-59 photoproducts. […] The Limit of Quantitation (LOQ) for the HPLC assay was 0.3 μM S-59.
The data described above indicate that the levels of residual photoproducts D and E are higher than levels of residual S-59 even thought the initial levels of D and E in the illuminated PC were much lower than S-59. […] The PC was assayed for unbound photoproducts using the HPLC assay discussed above, which quantifies the photoproducts present both within the platelets and in the plasma/PAS III mixture. […]

[3] = S-59 concentration by HPLC before and after illumination and RD treatment (Table Q); format: physicochemical
Protocol: Two ABO-matched single donor PCs containing 2−5×10^11 platelets in approximately 300 mL of 35% plasma and 65% PAS III were pooled and redivided into two identical units in PL 2410 Plastic containers (Baxter). One unit (the control) was immediately placed on a platelet shaker and stored at approximately 22° C. The other unit (the test) was treated with 150 μM S-59 and 3 Joules/cm^2 UVA. After treatment, the platelets suspension was transferred into a second PL 2410 Plastic container containing a RD. Contact between platelets and the RD occurred for a period of approximately 8 hours, then the platelet suspension was transferred to a new PL 2410 Plastic container for storage. The time of blood donation was defined as day 0. Treatment with S-59, UVA (320-400 nm), and the RD was performed on day 1. Six replicate experiments were carried out, each with a different pool of two ABO-matched single-donor platelet concentrates.
To evaluate the efficacy of the RD for reducing the concentration of S-59, platelet samples from the test unit were analyzed for S-59 content by HPLC. Samples before illumination, after 3 Joules/cm^2 of illumination, and immediately following the 8-hour RD treatment were analyzed.

[4] = Batch adsorption of 3H-S-59 and photoproducts from illuminated PC, residual radioactivity (Table F); format: physicochemical
Protocol: The removal of residual S-59 and S-59 photoproducts from illuminated PC by batch adsorption was investigated. […] Two separate platelet units were treated for each adsorbent; one unit was agitated for 3 hours before the platelets were separated from the adsorbent and transferred to another bag, and the other platelet unit was left in contact with the adsorbent for 4 days. Samples were removed from the units before treatment, after 3 hours of contact with the adsorbent, and on day 4.

| Compound | revertant colonies per plate ([1]; TA102 + S9, 0.1 μg/plate) | revertant colonies per plate ([1]; TA102 + S9, 0.5 μg/plate) | revertant colonies per plate ([1]; TA102 + S9, 1 μg/plate) | revertant colonies per plate ([1]; TA102 + S9, 5 μg/plate) | revertant colonies per plate ([1]; TA102 − S9, 0.1 μg/plate) | revertant colonies per plate ([1]; TA102 − S9, 0.5 μg/plate) | revertant colonies per plate ([1]; TA102 − S9, 1 μg/plate) | revertant colonies per plate ([1]; TA102 − S9, 5 μg/plate) | Concentration Remaining (Average ± S.D.) ([2]; PC with 15.2 mg S-59, 3.0 J/cm^2 UVA, incubated 8 hours with RD containing Dowex XUS-43493, LOQ 0.3 μM) [nM] | initial 15.2 mg of S-59 removed from PCs ([2]; following illumination and incubation with the RD) | initial S-59 concentration in a platelet concentrate ([3]; 0 Joule/cm^2, HPLC) | μM S-59 ([3]; Post Treatment With An RD (8 Hours)) [µM] | μM S-59 ([3]; Pre-Treatment (0 Joule/cm^2), platelet concentrate) [µM] | initial S-59 remaining unreacted ([3]; after 3 Joule/cm^2 of illumination) | counts as 3H exchanged water ([4]; 3H-S-59, illuminated PC) | counts associated with plasma macromolecules ([4]; 3H-S-59, illuminated PC) | counts associated with platelet macromolecules ([4]; 3H-S-59, illuminated PC) | non-adsorbed radioactivity ([4]; 3H-S-59, illuminated PC treated with adsorbent for 4 days) |
| --- | --- | --- | --- | --- | --- | --- | --- | --- | --- | --- | --- | --- | --- | --- | --- | --- | --- | --- |
| Cc1oc2c(C)c3oc(=O)cc(C)c3cc2c1CN [AMT, 4′-Aminomethyl-4,5′,8-trimethylpsoralen, reference compound] | −20 | 5 | −17 | 51 | 27 | 47 | 88 | 266 |  |  |  |  |  |  |  |  |  |  |
| Cc1oc2c(C)c3oc(=O)cc(C)c3cc2c1COCCN [Compound 2, 4′-(4-amino-2-oxa)butyl-4,5′,8-trimethylpsoralen] |  |  |  |  |  |  |  |  | 270 ± 50 | greater than 99% | approximately 145±10 μM | 0.27 ± 0.05 | 145 ± 10 | 20.5%±2.3% | about 10% | about 18% | about 15% | 36-37% |
